For data set [1] the following is noted: preclinical; po and IV; cited from earlier work.
Data set [2] concerns the target HIV-1 protease (Human immunodeficiency virus type 1 group M subtype B, UniProt P04585). The following applies: Phase I studies; cited from earlier work.
Data set [3] concerns duck HBV. The note with it: preclinical; cited from earlier work.
In data set [4] the test system is HIV-1. The following applies: clinical use; cited from earlier work.
Data set [5] concerns HIV-1-LAI strain. The data set can be described thus: in vitro anti-HIV-1 activity in PHA-P-activated PBMCs, RT activity in cell supernatants. The data set is classed as cell-based.
Procedure: Healthy PBMCs were separated from a buffy-coat of one HIV-seronegative blood donor by Ficoll-Hypaque density gradient centrifugation. PBMCs were activated by 1 μg/ml phytohemagglutinin (PHA-P) for two days in cell culture medium A: RPMI 1640 supplemented with 10% heat-inactivated (+56° C., 45 min.) fetal calf plasma (FCS), 2 mM L-glutamine and a tri-antibiotic mixture (penicillin, streptomycin, neomycin; PSN). After these two days, cells were washed and cultured at one million cell per milliliter in cell culture medium B: cell culture medium A supplemented with 20 IU/ml recombinant human interleukin-2. Cells were maintained at +37° C. in a 5% CO2-air humidified atmosphere.
Experiments were repeated twice with cells of other blood donors. In total, three independent experiments were performed. […]
200,000 PHA-P-activated PBMCs were added to each well of 96-well microplates. […] At day 7, RT activity were determined in cell supernatants, and potential cytotoxic effects of drugs and drug combinations were evaluated by microscopic observation.
Viral replication was measured by determining reverse transcriptase (“RT”) activity in cell supernatants using Retro-Sys® kit, according to manufacturer's recommendations (Innovagen, Lund, Sweden).
Effective doses were calculated using cumulative RT activities with Chou J. and T C. microcomputer software.

As to `Nc1nc(N)c2ncn([C@H]3CO[C@@H](CO)O3)c2n1` [DAPD, (−)-beta-D-2,6,-diaminopurine dioxolane], the “activity by route of administration” value in data set [1] is “^10Preclinical; active po and IV; DAPD is a prodrug of another dioxolene purine, DXG. See PharmaProjects, sections J5A & J5Z”. With `Cc1cccc(C)c1OCC(=O)N[C@@H](Cc1ccccc1)[C@@H](O)C[C@H](Cc1ccccc1)NC(=O)[C@H](C(C)C)N1CCCNC1=O` [ABT-378], the “potency relative to ritonavir” value in data set [2] is reported as “^9Phase I Studies show ABT-378 to be 10X more potent than ritonavir; see PharmaProjects sections J5A & J5Z”. “beta-L-2′, 3′-dicleoxy-5-fluorocytidene [Beta-L-FD4]”: the “activity in duck HBV model” value in data set [3] is recorded as “^9Preclinical; active in duck HBV model; see PharmaProjects, sections J5A & J5Z”. With `CC(C)c1nc(CN(C)C(=O)N[C@H](C(=O)N[C@@H](Cc2ccccc2)C[C@H](O)[C@H](Cc2ccccc2)NC(=O)OCc2cncs2)C(C)C)cs1` [Ritonavir], in data set [4], the adverse effects entry is “troublesome adverse effects”.

Consider “PEG12000-IFN-alfa2b: conjugate of interferon alfa-2b with polyethylene glycol of average molecular weight 12000 via a urethane linkage”, for which the “effect on the in vitro anti HIV-1 activity of ribavirin” value in data set [5] (PHA-P-activated PBMCs infected with HIV-1-LAI) is listed as “increased the in vitro anti HIV-1 activity of ribavirin”. The “inhibition of HIV replication in vitro” value in data set [5] (PHA-P-activated PBMCs, doses corresponding to plasmatic concentrations observed in animals and man) was “inhibited the HIV replication”.
